Measured values: patent publication US7846960B2, “FXR agonists” (Eli Lilly and Company, priority 2006, dated 2010)

How the values were obtained:
LDLR−/− mice = assay: LDLR−/− Serum Lipid Modulation; type: in vivo; conditions: male LDLR−/− mice on western diet, 10 mg/kg, once daily oral gavage for seven days
Protocol: Acclimate animals for two weeks prior to study initiation. House mice individually in polycarbonate cages with filter tops, and maintain mice on a 12:12 hour light-dark cycle (lights on at 6:00 AM) at 21° C. Provide deionized water ad libitum and maintain for two weeks on ‘western diet’ TD 88137 Diet (42% fat, 0.15% cholesterol, Harlan Teklad) ad libitum. Optimize groups of five ten-week-old male LDLR−/− mice based on serum triglyceride and cholesterol levels. Dose groups once daily by oral gavage with various doses of the test compound dissolved in 5% EtOH/5% Solutol in NaCMC (1%), SLS (0.5%), antifoam (0.05%), Povidone (0.085%) for seven days. At the end of the seven-day dosing period, collect blood by cardiac puncture after asphyxiation in a CO2 chamber. […] Lipoproteins were separated by fast protein liquid chromatography, and cholesterol was quantitated with an in-line detection system. […] The colored product produced in the presence of cholesterol was monitored in the flow stream at 505 nm, and the analog voltage from the monitor was converted to a digital signal for collection and analysis. The change in voltage corresponding to change in cholesterol concentration was plotted vs. time, and the area under the curve corresponding to the elution of VLDL-C and HDL-C was calculated using Turbochrome (version 4.12F12) software from PerkinElmer (Norwalk, Conn.).

FXR = biological target: T1, FXR (Homo sapiens, UniProt Q96RI1); assay: bDNA Assay for SHP mRNA; type: cell-based; conditions: human hepatocarcinoma Huh7 cells, 24 hours treatment, SHP mRNA by bDNA; read-out: SHP gene activation EC50
T1 construct: Plate human hepatocarcinoma Huh7 cells grown in DMEM:F12 with 10% fetal bovine serum; endogenous in cells; host or cells: Huh7 human hepatocarcinoma cells
T1 sequence (Q96RI1 1-486): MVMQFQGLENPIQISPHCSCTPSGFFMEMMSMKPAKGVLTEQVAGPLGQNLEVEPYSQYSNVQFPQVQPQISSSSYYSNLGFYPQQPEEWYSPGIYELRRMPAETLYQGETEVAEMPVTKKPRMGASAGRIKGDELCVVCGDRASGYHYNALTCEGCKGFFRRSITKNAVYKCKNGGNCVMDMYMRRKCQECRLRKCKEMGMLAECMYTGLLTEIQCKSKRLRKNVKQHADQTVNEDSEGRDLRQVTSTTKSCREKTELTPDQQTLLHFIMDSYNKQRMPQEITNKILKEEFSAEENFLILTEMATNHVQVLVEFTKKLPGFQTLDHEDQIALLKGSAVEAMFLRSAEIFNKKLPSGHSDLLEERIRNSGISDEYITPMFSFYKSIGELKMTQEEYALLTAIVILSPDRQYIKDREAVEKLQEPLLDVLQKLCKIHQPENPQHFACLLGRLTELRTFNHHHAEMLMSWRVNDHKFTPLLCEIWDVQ
Description: FXR is a key, direct transcriptional regulator of the Small Heterodimer Partner (SHP) gene, accession number NM_021969, an atypical member of the nuclear receptor family that lacks a DNA-binding domain. SHP interacts with several conventional and orphan members of the nuclear receptor superfamily, including retinoid receptors and thyroid hormone receptor. SHP inhibits transactivation potential of superfamily members with which it interacts. […] Since FXR directly transactivates transcription of the SHP gene, the SHP branched DNA method (bDNA) quantitates FXR activation by ligands. Thus, increased expression of SHP mRNA, as determined by increase bDNA signal, signifies engagement of FXR by an agonist.
Plate human hepatocarcinoma Huh7 cells grown in DMEM:F12 with 10% fetal bovine serum and in 96 well plate at the density of 1×10^5/well. After overnight incubation, treat the cells with test compounds at various concentrations for 24 hours. […]
Incubate the lysis buffer for 15-minute at 37° C., then transfer 100 μL of the lysate from each well to the corresponding wells of the capture plate. […] Label the mRNA to be measured by addition of 100 μL QuantiGene® label probe working buffer then incubate for 60 minutes at 46° C. […] Incubate the plates at 37° C. for up to 30 minutes and then read on a luminometer (Packard Fusion Alpha, 1 second detection) to detect the luminescent signal. […]

EC50 (FXR) [nM]	SMILES	lowering of total cholesterol (LDLR−/− mice) [%]	lowering of triglycerides (LDLR−/− mice) [%]
	Cc1cc(CN(C)c2ccc(OCc3c(C(C)C)cnn3-c3c(Cl)cccc3Cl)cc2C)cc(C(=O)O)c1 [Example 199, 3-[({4-[2-(2,6-Dichloro-phenyl)-4-isopropyl-2H-pyrazol-3-ylmethoxy]-2-methyl-phenyl}-methyl-amino)-methyl]-5-methyl-benzoic acid]	60	63
~53	CCN(Cc1cccc(C(=O)O)c1)c1ccc(OCc2c(C(C)C)cnn2-c2c(Cl)cccc2Cl)cc1C [Example 90, 3-[({4-[2-(2,6-Dichloro-phenyl)-4-isopropyl-2H-pyrazol-3-ylmethoxy]-2-methyl-phenyl}-ethyl-amino)-methyl]-benzoic acid]		
